Values of other authors, collected in PMC9851200, “Multiparameter phenotypic screening for endogenous TFEB and TFE3 translocation identifies novel chemical series modulating lysosome function” (Autophagy, 2022).

What was measured:
Design in all cases: method as in original PKIS2 published data
[1] = biological target: kinases (KINOMEscan panel) (Homo sapiens, UniProt Q8IU85); settings: kinase CAMK1D; Published KINOMEscan; ref original PKIS2 published data; cited from earlier work
[2] = biological target: kinases (KINOMEscan panel) (Homo sapiens, UniProt Q9BX84); settings: TRPM6; Published KINOMEscan; ref original PKIS2 published data; cited from earlier work
[3] = biological target: kinases (KINOMEscan panel) (Homo sapiens, UniProt Q9UM73); settings: kinase ALK; Published KINOMEscan; ref original PKIS2 published data; cited from earlier work
[4] = biological target: kinases (KINOMEscan panel) (Homo sapiens, UniProt P29317); settings: EPHA2; Published KINOMEscan; ref original PKIS2 published data; cited from earlier work
[5] = biological target: kinases (KINOMEscan panel) (Homo sapiens, UniProt Q15569); settings: TESK1; Published KINOMEscan; ref original PKIS2 published data; cited from earlier work
[6] = biological target: kinases (KINOMEscan panel) (Homo sapiens, UniProt P51957); settings: kinase NEK4; Published KINOMEscan; ref original PKIS2 published data; cited from earlier work
[7] = biological target: kinases (KINOMEscan panel) (Homo sapiens, UniProt Q8TDR2); settings: STK35; Published KINOMEscan; ref original PKIS2 published data; cited from earlier work
[8] = biological target: kinases (KINOMEscan panel) (Homo sapiens, UniProt P17612); settings: kinase PRKACA; Published KINOMEscan; ref original PKIS2 published data; cited from earlier work
[9] = biological target: kinases (KINOMEscan panel) (Homo sapiens, UniProt P06241); settings: kinase FYN; Published KINOMEscan; ref original PKIS2 published data; cited from earlier work
[10] = biological target: kinases (KINOMEscan panel) (Homo sapiens, UniProt P11309); settings: Published KINOMEscan; ref original PKIS2 published data; cited from earlier work
[11] = biological target: kinases (KINOMEscan panel) (Homo sapiens, UniProt O75914); settings: Published KINOMEscan; ref original PKIS2 published data; cited from earlier work
[12] = biological target: kinases (KINOMEscan panel) (Homo sapiens, UniProt Q8NI60); settings: COQ8A; Published KINOMEscan; ref original PKIS2 published data; cited from earlier work
[13] = biological target: kinases (KINOMEscan panel) (Homo sapiens, UniProt Q02779); settings: kinase MAP3K10; Published KINOMEscan; ref original PKIS2 published data; cited from earlier work
[14] = biological target: T1, kinases (KINOMEscan panel) (Homo sapiens, UniProt Q9C098); settings: kinase DCLK3; Published KINOMEscan; ref original PKIS2 published data; cited from earlier work
T1 sequence (Q9C098 1-648): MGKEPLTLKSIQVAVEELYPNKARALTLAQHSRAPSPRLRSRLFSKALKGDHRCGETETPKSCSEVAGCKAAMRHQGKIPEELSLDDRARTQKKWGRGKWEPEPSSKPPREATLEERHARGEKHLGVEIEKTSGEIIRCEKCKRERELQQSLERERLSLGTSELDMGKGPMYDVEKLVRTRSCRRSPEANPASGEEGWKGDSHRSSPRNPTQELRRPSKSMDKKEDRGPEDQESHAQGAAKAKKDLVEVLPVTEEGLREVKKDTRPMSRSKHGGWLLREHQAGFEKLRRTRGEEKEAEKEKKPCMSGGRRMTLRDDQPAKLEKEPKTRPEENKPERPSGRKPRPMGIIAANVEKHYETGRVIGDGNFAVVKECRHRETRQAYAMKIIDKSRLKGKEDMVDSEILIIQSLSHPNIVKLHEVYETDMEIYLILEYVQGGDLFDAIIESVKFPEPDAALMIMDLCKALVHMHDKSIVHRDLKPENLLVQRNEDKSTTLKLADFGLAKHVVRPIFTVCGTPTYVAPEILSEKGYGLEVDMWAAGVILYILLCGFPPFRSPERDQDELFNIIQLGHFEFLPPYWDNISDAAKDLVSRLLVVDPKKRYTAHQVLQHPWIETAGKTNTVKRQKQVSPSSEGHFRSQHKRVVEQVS

[15] = biological target: kinases (KINOMEscan panel) (Homo sapiens, UniProt P07332); settings: kinase FES; Published KINOMEscan; ref original PKIS2 published data; cited from earlier work
Chain of kinases (KINOMEscan panel) (Homo sapiens, UniProt P07332) (P07332 whole entry): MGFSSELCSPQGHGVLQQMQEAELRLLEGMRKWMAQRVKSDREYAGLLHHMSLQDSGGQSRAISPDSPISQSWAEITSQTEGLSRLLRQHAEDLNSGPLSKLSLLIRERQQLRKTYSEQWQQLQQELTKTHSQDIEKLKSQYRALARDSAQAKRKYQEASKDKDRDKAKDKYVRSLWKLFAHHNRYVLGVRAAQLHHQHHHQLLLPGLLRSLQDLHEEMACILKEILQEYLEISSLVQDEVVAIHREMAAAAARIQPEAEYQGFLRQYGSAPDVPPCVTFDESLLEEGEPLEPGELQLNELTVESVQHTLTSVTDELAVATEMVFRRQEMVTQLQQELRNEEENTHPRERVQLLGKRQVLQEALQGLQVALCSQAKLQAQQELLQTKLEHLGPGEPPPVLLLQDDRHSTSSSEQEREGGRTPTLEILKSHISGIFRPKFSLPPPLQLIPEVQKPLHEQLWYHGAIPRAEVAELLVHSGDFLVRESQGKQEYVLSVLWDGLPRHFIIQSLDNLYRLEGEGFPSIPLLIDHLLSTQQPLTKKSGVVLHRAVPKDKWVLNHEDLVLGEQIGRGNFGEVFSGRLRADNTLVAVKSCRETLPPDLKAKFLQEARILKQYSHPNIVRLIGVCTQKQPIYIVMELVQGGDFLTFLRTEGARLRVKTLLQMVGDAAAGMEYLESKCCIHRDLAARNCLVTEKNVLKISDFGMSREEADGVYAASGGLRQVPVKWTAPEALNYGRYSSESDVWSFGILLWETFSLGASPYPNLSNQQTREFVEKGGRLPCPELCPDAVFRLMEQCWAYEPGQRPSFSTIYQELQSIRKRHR

Chain of kinases (KINOMEscan panel) (Homo sapiens, UniProt Q8IU85) (Q8IU85 whole entry): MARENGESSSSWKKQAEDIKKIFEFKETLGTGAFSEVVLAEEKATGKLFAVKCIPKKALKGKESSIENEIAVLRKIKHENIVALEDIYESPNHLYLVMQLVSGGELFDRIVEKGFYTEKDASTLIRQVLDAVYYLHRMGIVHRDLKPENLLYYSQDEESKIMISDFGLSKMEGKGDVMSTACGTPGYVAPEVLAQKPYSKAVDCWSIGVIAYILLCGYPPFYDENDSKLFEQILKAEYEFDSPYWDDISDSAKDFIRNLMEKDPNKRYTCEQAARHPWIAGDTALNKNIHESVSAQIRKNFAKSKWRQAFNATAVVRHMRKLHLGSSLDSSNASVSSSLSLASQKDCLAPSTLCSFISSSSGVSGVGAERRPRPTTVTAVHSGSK
Chain of kinases (KINOMEscan panel) (Homo sapiens, UniProt Q9UM73) (Q9UM73 19-1620): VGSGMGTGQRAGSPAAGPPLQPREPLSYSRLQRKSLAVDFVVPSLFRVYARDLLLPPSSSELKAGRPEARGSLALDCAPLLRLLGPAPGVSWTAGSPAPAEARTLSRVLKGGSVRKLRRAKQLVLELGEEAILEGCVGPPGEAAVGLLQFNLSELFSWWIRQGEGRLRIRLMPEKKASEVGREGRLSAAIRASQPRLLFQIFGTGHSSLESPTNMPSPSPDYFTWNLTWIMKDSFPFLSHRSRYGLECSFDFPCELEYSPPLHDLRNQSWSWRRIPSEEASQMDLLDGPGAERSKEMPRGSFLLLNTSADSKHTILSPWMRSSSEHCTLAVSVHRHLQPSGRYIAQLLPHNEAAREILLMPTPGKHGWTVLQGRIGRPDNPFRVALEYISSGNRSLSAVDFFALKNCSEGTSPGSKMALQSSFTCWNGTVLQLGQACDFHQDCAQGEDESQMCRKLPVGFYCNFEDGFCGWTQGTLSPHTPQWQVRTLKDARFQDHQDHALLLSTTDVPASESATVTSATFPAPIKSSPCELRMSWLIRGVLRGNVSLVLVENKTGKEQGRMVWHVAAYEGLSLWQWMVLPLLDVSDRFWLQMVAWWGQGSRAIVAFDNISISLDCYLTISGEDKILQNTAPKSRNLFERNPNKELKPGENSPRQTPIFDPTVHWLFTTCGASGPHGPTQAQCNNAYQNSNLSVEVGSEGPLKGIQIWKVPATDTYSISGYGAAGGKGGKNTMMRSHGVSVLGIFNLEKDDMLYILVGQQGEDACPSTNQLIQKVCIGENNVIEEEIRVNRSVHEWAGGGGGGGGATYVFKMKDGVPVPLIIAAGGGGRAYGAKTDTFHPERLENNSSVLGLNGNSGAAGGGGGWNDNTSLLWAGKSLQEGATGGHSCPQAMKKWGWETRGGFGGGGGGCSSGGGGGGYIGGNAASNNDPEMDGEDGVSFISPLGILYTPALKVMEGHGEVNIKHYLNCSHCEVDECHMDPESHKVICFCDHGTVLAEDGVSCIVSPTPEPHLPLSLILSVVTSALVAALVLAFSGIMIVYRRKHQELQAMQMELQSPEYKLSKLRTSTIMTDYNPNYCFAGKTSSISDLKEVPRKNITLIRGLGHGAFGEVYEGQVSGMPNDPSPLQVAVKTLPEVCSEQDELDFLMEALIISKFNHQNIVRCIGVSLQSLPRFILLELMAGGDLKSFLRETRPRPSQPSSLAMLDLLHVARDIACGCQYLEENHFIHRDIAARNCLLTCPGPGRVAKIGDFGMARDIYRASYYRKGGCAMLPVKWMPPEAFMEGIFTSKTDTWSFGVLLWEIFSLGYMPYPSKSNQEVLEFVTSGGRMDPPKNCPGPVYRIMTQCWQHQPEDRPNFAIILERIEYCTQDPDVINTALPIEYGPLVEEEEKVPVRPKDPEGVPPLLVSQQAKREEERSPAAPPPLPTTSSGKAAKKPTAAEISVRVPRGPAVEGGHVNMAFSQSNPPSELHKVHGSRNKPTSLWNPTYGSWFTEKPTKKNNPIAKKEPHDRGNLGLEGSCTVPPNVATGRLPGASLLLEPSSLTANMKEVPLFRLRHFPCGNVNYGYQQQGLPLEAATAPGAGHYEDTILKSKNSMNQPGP
Chain of kinases (KINOMEscan panel) (Homo sapiens, UniProt Q8TDR2) (Q8TDR2 whole entry): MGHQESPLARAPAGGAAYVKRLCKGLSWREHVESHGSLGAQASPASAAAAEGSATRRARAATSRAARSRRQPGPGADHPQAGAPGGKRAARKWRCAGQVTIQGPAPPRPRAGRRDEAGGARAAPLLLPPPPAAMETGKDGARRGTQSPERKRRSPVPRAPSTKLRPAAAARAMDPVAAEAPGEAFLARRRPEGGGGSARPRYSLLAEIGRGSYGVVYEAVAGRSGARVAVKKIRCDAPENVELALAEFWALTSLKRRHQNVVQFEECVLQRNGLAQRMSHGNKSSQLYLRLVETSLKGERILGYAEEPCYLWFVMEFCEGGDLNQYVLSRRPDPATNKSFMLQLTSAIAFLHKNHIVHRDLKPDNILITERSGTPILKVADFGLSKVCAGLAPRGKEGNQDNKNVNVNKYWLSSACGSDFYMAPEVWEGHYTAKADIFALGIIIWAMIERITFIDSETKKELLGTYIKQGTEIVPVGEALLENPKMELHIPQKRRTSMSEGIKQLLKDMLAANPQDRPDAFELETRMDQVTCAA
Chain of kinases (KINOMEscan panel) (Homo sapiens, UniProt P29317) (P29317 24-976): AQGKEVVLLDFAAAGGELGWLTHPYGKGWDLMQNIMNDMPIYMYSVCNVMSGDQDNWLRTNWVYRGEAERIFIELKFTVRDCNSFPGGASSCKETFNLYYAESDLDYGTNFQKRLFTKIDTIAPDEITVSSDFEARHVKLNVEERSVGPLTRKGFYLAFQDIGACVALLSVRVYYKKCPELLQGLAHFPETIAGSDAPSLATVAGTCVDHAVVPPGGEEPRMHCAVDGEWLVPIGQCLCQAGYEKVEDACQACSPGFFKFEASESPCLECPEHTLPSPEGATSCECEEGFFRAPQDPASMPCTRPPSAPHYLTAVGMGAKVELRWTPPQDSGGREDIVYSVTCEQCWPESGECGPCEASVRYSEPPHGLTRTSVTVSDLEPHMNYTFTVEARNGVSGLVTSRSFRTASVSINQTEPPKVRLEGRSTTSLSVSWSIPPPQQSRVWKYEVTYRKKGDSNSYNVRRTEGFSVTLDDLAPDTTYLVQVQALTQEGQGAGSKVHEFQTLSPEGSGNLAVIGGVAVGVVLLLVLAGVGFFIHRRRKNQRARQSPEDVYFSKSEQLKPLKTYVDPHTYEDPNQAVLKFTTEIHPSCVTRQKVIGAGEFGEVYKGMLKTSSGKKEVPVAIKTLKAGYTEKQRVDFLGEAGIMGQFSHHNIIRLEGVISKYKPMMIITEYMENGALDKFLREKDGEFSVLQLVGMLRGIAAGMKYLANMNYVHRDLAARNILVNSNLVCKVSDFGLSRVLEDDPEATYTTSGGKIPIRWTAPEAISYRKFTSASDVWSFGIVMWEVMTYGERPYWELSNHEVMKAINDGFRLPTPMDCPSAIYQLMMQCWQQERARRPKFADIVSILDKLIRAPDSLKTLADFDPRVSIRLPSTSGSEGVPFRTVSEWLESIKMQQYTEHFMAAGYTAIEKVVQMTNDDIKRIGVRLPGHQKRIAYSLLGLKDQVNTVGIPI
Chain of kinases (KINOMEscan panel) (Homo sapiens, UniProt Q15569) (Q15569 whole entry): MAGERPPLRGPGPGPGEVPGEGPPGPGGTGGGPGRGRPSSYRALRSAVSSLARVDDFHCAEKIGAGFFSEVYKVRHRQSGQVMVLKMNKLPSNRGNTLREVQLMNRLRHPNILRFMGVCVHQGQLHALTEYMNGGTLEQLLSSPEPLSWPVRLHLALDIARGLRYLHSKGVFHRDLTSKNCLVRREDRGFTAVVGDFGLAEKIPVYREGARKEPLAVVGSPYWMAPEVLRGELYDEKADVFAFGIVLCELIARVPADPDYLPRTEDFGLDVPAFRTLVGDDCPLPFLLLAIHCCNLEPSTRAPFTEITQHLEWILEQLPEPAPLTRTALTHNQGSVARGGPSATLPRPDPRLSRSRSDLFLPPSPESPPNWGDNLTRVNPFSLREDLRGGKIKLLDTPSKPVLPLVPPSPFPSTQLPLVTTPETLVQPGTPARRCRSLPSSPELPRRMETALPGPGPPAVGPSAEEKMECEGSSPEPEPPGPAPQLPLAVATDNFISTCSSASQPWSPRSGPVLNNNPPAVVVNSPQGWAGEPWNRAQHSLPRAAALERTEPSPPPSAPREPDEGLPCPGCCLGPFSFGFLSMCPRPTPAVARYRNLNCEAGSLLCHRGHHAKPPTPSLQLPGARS

Compound: Cc1cccc(-c2nc(Nc3ccncc3)c3ccccc3n2)n1 [NK215]
- KINOMEscan CAMK1D [1]: 3
- KINOMEscan TRPM6 [2]: 0
- KINOMEscan ALK [3]: 0
- KINOMEscan EPHA2 [4]: 18
- KINOMEscan TESK1 [5]: 14
- KINOMEscan NEK4 [6]: 0
- KINOMEscan STK35 [7]: 0
- KINOMEscan PRKACA [8]: 23
- KINOMEscan FYN [9]: 13
- KINOMEscan PIM1 [10]: 0
- KINOMEscan PAK3 [11]: 0
- KINOMEscan COQ8A [12]: 27
- KINOMEscan MAP3K10 [13]: 7
- KINOMEscan DCLK3 [14]: 21
- KINOMEscan FES [15]: 13
